Consider 39 compounds from patent US7291641B2, “Derivatives of heterocycles with 5 members, their preparation and their use as medicaments” (Societe de Conseils de Recherches et d'Applications …, priority 1999, dated 2007).

Counter-ions that a name gives are not always drawn.

The melting point is the temperature, or range, at which the solid turns liquid. For the compound `CC(C)(C)OC(=O)NC(C)(C)c1nc(-c2ccccc2)c[nH]1` [Example 127, tert-butyl 1-methyl-1-(4-phenyl-1H-imidazol-2-yl)ethylcarbamate], the melting point is 130 to 132 °C. For `CCCCCCC(N)c1nc(-c2ccc(C#N)cc2)c[nH]1` (racemic) (as salt: hydrochloride) [Example 205, (R,S)-4-[2-(1-aminoheptyl)-1H-imidazol-4-yl]benzonitrile] the value was 218 to 220 °C; for `CCCCCC(NCc1ccccc1)c1nc(-c2ccccc2)c[nH]1` (racemic) [Example 202, (R,S)-N-benzyl-1-(4-phenyl-1H-imidazol-2-yl)-1-hexanamine], 192 to 194 °C; for `CCCCOC(=O)NCCc1nc(-c2ccc(CC)cc2)c[nH]1` [Example 450, butyl 2-[4-(4-ethylphenyl)-1H-imidazol-2-yl]ethylcarbamate], 92.4 °C. For `CCCCCCN[C@@H](Cc1c[nH]c2ccccc12)c1nc(-c2ccccc2)c[nH]1` (as salt: hydrochloride) [Example 53, N-[(1S)-2-(1H-indol-3-yl)-1-(4-phenyl-1H-imidazol-2-yl)ethyl]-1-hexanamine] the value was 132 to 134 °C; for `Fc1cccc(-c2c[nH]c([C@@H](NC3CCCCC3)C3CCCCC3)n2)c1` (as salt: hydrochloride) [Example 314, N-{(S)-cyclohexyl[4-(3-fluorophenyl)-1H-imidazol-2-yl]methyl}cyclohexanamine], 213.9 °C; for `c1ccc(CNCc2nc(-c3ccccc3)c(-c3ccccc3)[nH]2)cc1` [Example 163, N-benzyl(4,5-diphenyl-1H-imidazol-2-yl)methanamine], 160 to 162 °C. On to `N[C@H](CC1CCCCC1)c1nc(-c2ccc(-c3ccccc3)cc2)c[nH]1` (as salt: hydrochloride) [Example 154], for which the melting point fell in the range of 178 to 180 °C. For `CC(C)(C)c1c[nH]c([C@H](N)Cc2c[nH]c3ccccc23)n1` (as salt: hydrochloride) the value was 230 to 232 °C; for `CC(C)N[C@H](c1nc(-c2ccc(F)cc2)c[nH]1)C1CCCCC1` [Example 261, N-{(S)-cyclohexyl[4-(4-fluorophenyl)-1H-imidazol-2-yl]methyl}-2-propanamine], 210 to 212 °C. For the compound `O=C(NCCc1nc(-c2ccc(-c3ccccc3)cc2)c[nH]1)OCC1CCCCC1` [Example 280, cyclohexylmethyl 2-(4-[1,1′-biphenyl]-4-yl-1H-imidazol-2-yl)ethylcarbamate], the melting point was 132 to 134 °C. `c1ccc(CC[C@@H](NCc2ccccc2)c2nc(-c3ccc(-c4ccccc4)cc3)c[nH]2)cc1` [Example 170, (1R)-N-benzyl-1-(4-[1,1′-biphenyl]-4-yl-1H-imidazol-2-yl)-3-phenyl-1-propanamine] had a melting point of 210 to 213 °C. Regarding `N[C@H](CC1CCCCC1)c1nc(-c2ccc(F)cc2)c[nH]1` (as salt: hydrochloride) [Example 308, (1R)-2-cyclohexyl-1-[4-(4-fluorophenyl)-1H-imidazol-2-yl]ethanamine], the melting point is 148 to 149 °C.

The compound `CCCCCCC(NC(=O)OC(C)(C)C)c1nc(-c2ccccc2OC)c[nH]1` (racemic) [Example 183, tert-butyl (R,S)-1-[4-(2-methoxyphenyl)-1H-imidazol-2-yl]heptylcarbamate] came in with a melting point of 64 to 65 °C. With `CCCCCCC(NCC1CCCCC1)c1nc(-c2ccccc2)c[nH]1` (racemic) (as salt: hydrochloride) [Example 263, (R,S) N-(cyclohexylmethyl)-1-(4-phenyl-1H-imidazol-2-yl)-1-heptanamine], the melting point fell in the range of 142 to 144 °C. Take `CCCCOC(=O)NCCc1nc(-c2ccc(-c3ccc(C)cc3)cc2)c[nH]1` [Example 394, butyl 2-[4-(4′-methyl-1,1′-biphenyl-4-yl)-1H-imidazol-2-yl]ethylcarbamate]: the melting point worked out at 168.4 °C. Regarding `Cc1[nH]c([C@@H](Cc2c[nH]c3ccccc23)NCc2ccccc2)nc1-c1ccccc1` [Example 95, (1R)-N-benzyl-2-(1H-indol-3-yl)-1-(5-methyl-4-phenyl-1H-imidazol-2-yl)ethanamine], the melting point is 120 to 122 °C. On to `CC(C)(C)c1ccc(-c2c[nH]c(CCNC(=O)OCC3CCCCC3)n2)cc1` [Example 302, cyclohexylmethyl 2-[4-(4-tert-butylphenyl)-1H-imidazol-2-yl]ethylcarbamate], for which the melting point lay within 104 to 106 °C. To `CCCCCCC(NC(C)C)c1nc(-c2ccccc2)c[nH]1` (racemic) [Example 248, (R,S)-N-isopropyl-N-[1-(4-phenyl-1H-imidazol-2-yl)heptyl]amine] belongs 114 to 116 °C; to `CCC[C@@H](NCc1ccccc1)c1nc(-c2ccccc2)c[nH]1` [Example 214, (1R)-N-benzyl-1-(4-phenyl-1H-imidazol-2-yl)-1-butanamine], 218 to 220 °C; to `FC(F)(F)c1cc(-c2c[nH]c([C@@H](NC3CCCCC3)C3CCCCC3)n2)cc(C(F)(F)F)c1` [Example 284, N-[(S)-{4-[3,5-bis(trifluoromethyl)phenyl]-1H-imidazol-2-yl}(cyclohexyl)methyl]cyclohexanamine], 180 to 182 °C.

`N[C@H](Cc1ccccc1)c1nc(-c2ccc(F)cc2)c[nH]1` (as salt: hydrochloride) [Example 324, (1R)-1-[4-(4-fluorophenyl)-1H-imidazol-2-yl]-2-phenylethanamine] came in with a melting point of 173 to 180 °C.

For `c1ccc(CN[C@H](Cc2c[nH]c3ccccc23)c2nc(-c3ccccc3)c[nH]2)cc1` [Example 88, (1R)-N-benzyl-2-(1H-indol-3-yl)-1-(4-phenyl-1H-imidazol-2-yl)ethanamine], the melting point fell in the range of 100 to 102 °C. For `c1ccc(CN(Cc2ccccc2)Cc2nc(-c3ccc(-c4ccccc4)cc3)c[nH]2)cc1` [Example 144, N,N-dibenzyl(4-[1,1′-biphenyl]4-yl-1H-imidazol-2-yl)methanamine] the value was 70 to 74 °C.

In turn, `CCCCOC(=O)NCCc1nc(-c2ccc(-c3cccc(F)c3F)cc2)c[nH]1` [Example 455, butyl 2-[4-(2′,3′-difluoro-1,1′-biphenyl-4-yl)-1H-imidazol-2-yl]ethylcarbamate] had a melting point of 90 °C. To `c1ccc(CN[C@H](Cc2csc3ccccc23)c2nc(-c3ccccc3)c[nH]2)cc1` [Example 111, (1R)-2-(1-benzothien-3-yl)-N-benzyl-1-(4-phenyl-1H-imidazol-2-yl)ethanamine] belongs 152 to 154 °C; to `CCCCCCC(N)c1nc(-c2ccc(N(CC)CC)cc2)c[nH]1` (racemic) (as salt: hydrochloride) [Example 218, (R,S)-4-[2-(1-aminoheptyl)-1H-imidazol-4-yl]-N,N-diethylaniline], 192 °C; to `CCCCCCOC(=O)NCCc1nc(-c2ccc(-c3ccccc3)cc2)c[nH]1` [Example 255, hexyl 2-(4-[1,1′-biphenyl]-4-yl-1H-imidazol-2-yl)ethylcarbamate], 116.5 to 116.8 °C. In turn, `O=C(N[C@H](Cc1c[nH]c2ccccc12)c1nc(-c2ccccc2)cs1)c1ccccc1` [Example 101, N-[(1R)-2-(1H-indol-3-yl)-1-(4-phenyl-1,3-thiazol-2-yl)-ethyl]benzamide] showed a melting point of 108 to 110 °C. `O=C(N[C@H](Cc1c[nH]c2ccccc12)c1nc(-c2ccccc2)c[nH]1)OCc1ccccc1` [Example 99, benzyl (1R)-2-(1H-indol-3-yl)-1-(4-phenyl-1H-imidazol-2-yl)ethylcarbamate] registered a melting point of 105 to 108 °C. For the compound `CC[C@H](NCc1ccccc1)c1nc(-c2ccccc2)c(-c2ccccc2)[nH]1` [Example 204, (1S)-N-benzyl-1-(4,5-diphenyl-1H-imidazol-2-yl)-1-propanamine], the melting point lay within 182 to 184 °C. To `c1ccc(-c2c[nH]c([C@@H](NCC3CCCCC3)C3CCCCC3)n2)cc1` (as salt: hydrochloride) [Example 265, (S)-cyclohexyl-N-(cyclohexylmethyl)(4-phenyl-1H-imidazol-2-yl)methanamine] belongs 180 to 182 °C. For `Fc1ccc(-c2c[nH]c([C@@H](NC3CCC3)C3CCCCC3)n2)cc1F` [Example 262, N-{(S)-cyclohexyl[4-(3,4-difluorophenyl)-1H-imidazol-2-yl]methyl}cyclobutanamine] the value was 200 to 202 °C. To `CC(C)(C)OC(=O)N[C@H](CC1CCCCC1)c1nc(-c2ccc(-c3ccccc3)cc2)c[nH]1` [Example 150, 4-(2-{(1R)-1-[(tert-butoxycarbonyl)amino]-2-cyclohexylethyl}-1H-imidazol-4-yl)-1,1′-biphenyl] belongs 112 to 114 °C; to `CC(C)(C)CCOC(=O)NCCc1nc(-c2ccc(N3CCCC3)cc2)c[nH]1` [Example 379, 3,3-dimethylbutyl 2-[4-(4-pyrrolidin-1-ylphenyl)-1H-imidazol-2-yl]ethylcarbamate], 119.2 °C.

For the compound `CC(C)(C)OC(=O)NCCCc1nc(-c2ccc(-c3ccccc3)cc2)c[nH]1` [Example 171, 4-(2-{3-[(tert-butoxycarbonyl)amino]propyl}-1H-imidazol-4-yl)-1,1′-biphenyl], the melting point fell in the range of 145 to 146 °C. For `Cn1cc(CC(N)c2nc(-c3ccccc3)c[nH]2)c2ccccc21` (racemic) (as salt: hydrochloride) [Example 92, (R,S)-2-(1-methyl-1H-indol-3-yl)-1-(4-phenyl-1H-imidazol-2-yl)ethylamine] the value was 110 to 114 °C. `CC(C)(C)OC(=O)NCCc1nc(-c2ccc(-c3ccccc3)cc2)c[nH]1` [Example 152, 4-(2-{2-[(tert-butoxycarbonyl)amino]ethyl}-1H-imidazol-4-yl)-1,1′-biphenyl] returned a melting point of 140 to 142 °C. For `FC(F)(F)c1cccc(-c2c[nH]c([C@@H](NC3CCCCC3)C3CCCCC3)n2)c1` [Example 304, N-((S)-cyclohexyl{4-[3-(trifluoromethyl)phenyl]-1H-imidazol-2-yl}methyl)cyclohexanamine] the value was 186 to 188 °C.
